From patent publication US9834773B2, “Methods and means for metabolic engineering and improved product formation by micro-organisms” (Universiteit Leiden, priority 2006, dated 2017)

Target: DasR (Streptomyces coelicolor, UniProt Q9K492)
Assay: EMSA binding interference experiment: ability of compounds to interfere with binding of DasR to the nagB and crr promoters
Details: for effect on formation of the complex of DasR with the nagB promoter (EMSA): 10 nM fluorescent probe, 3 μM purified DasR, 500-fold excess of non-specific DNA, 50, 100, 150, and 200 mM compound; for effect on formation of the complex of DasR with the crr promoter region (EMSA): data not shown
Procedure: FIG. 12. […] EMSAs were performed with 10 nM fluorescent probe, 3 μM purified DasR, and 500-fold excess of non-specific DNA.
EMSAs were performed with fluorescent probes (10 nM) with an ALF express sequencer (Filee et al., 2001). Purified DasR (3 μM) and 1000-fold excess of non-specific DNA were used in the reaction mixture. Predicted cis-acting elements were taken from the promoter regions of actII-ORF4 (SCO5085; 5′-[…]-3′ (SEQ ID NO:530)), and redZ (SCO5881; 5′-[…]-3′ (SEQ ID NO:531)). Known cis-acting elements upstream of crr (SCO1390; […]-3′ (SEQ ID NO:532)), and crp (SCO3571; 5′-[…]-3′ (SEQ ID NO:533)) were used as positive and negative controls, respectively. The 16 nt dre sites are underlined.
A pivotal question is what is the effector molecule that modulates DasR? As shown in here, many of the targets for DasR relate to the generation (chitinolytic system), transport (PTS^GlcNAc), and metabolism (glycolysis via fructose 6-P) of N-acetylglucosamine. We therefore looked for the inducer among the intermediate molecules that gravitate around aminosugar metabolism. A binding interference experiment was set up where the ability of compounds to interfere with binding of dasR to the nagB and crr promoters was tested. […] The finding that glucosamine-6-P serves as an effector of DasR is explained by its central position at the metabolic crossroads between (GlcNAc)n extracellular degradation, N-acetylglucosamine transport and intracellular metabolism, lipid and nitrogen metabolism, glycolysis, and peptidoglycan synthesis (FIG. 13).

Chain of DasR (Q9K492 whole entry): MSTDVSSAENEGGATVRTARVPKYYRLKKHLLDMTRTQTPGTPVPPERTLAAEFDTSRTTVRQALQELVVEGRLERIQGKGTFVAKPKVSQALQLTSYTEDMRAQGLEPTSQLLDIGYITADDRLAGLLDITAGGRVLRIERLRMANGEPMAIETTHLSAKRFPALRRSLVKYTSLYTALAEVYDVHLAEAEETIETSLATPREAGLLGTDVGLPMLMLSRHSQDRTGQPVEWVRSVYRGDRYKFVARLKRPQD

Compound | effect on formation of the complex of DasR with the nagB promoter (EMSA) | effect on formation of the complex of DasR with the crr promoter region (EMSA) | effect on formation of the complex of DasR with the nagB promoter (EMSA) (listed as GlcN-6-P)
NC(=O)CC[C@H](N)C(=O)O [glutamine] | it was the only of the compounds tested that prevented the formation of a complex | it was the only of the compounds tested that prevented the formation of a complex | –
CC(=O)SCCNC(=O)CCNC(=O)[C@H](O)C(C)(C)COP(=O)(O)OP(=O)(O)OC[C@H]1O[C@@H](n2cnc3c(N)ncnc32)[C@H](O)[C@@H]1OP(=O)(O)O [acetyl-CoA] | it was the only of the compounds tested that prevented the formation of a complex | it was the only of the compounds tested that prevented the formation of a complex | –
N[C@H]1C(O)O[C@H](COP(=O)(O)O)[C@@H](O)[C@@H]1O (stereo partly shown) [glucosamine-6-P, glucosamine-6-phosphate] | prevented the formation of a complex | prevented the formation of a complex | release of DasR from the dre site
N[C@@H](CCC(=O)O)C(=O)O [glutamate] | it was the only of the compounds tested that prevented the formation of a complex | it was the only of the compounds tested that prevented the formation of a complex | –
O=C(CO)[C@@H](O)[C@H](O)[C@H](O)COP(=O)(O)O [fructose 6-P] | it was the only of the compounds tested that prevented the formation of a complex | it was the only of the compounds tested that prevented the formation of a complex | –
CC(=O)N[C@H]1C(O)O[C@H](COP(=O)(O)O)[C@@H](O)[C@@H]1O (stereo partly shown) [N-acetylglucosamine-6-P] | it was the only of the compounds tested that prevented the formation of a complex | it was the only of the compounds tested that prevented the formation of a complex | –
